According to US10351586B2, “Cytidine derivative dimers and applications thereof” (CHANGZHOU FANGYUAN PHARMACEUTICAL CO., LTD, priority 2014, dated 2019):
Marks after values point to notes of the source that are not given here.

Tests used:
[1] = system: HCT-116 human colon cancer xenografts; test: Tumor growth inhibition of HCT-116 human colon cancer xenografts in nude mice; format: in vivo, Balb/c nude mice; conditions: for Relative tumor proliferation rate (T/C %) / Relative tumor volume (RTV) / Tumor growth inhibition rate (TGI %) / Tumor volume of HCT-116 human colon cancer xenografts: single IP injection (QD×1), D1 and D2 400 mg/kg, D3 350 mg/kg, D4 300 mg/kg; for Tumor volume of HCT-116 human colon cancer xenografts: Mean±SEM
Description: 2. Preparation of the test substance was performed by dissolving the test substance using the following solvents:
3. Animal experiments were performed. […] Animals were numbered using their tail number.
4.1 Tumor cells were human HCT-116 colon cancer cells purchased from the Institute of Cell Biology, Chinese Academy of Sciences (Beijing, China). F-12 medium (containing 10% FBS) was used to culture cells in a carbon dioxide incubator at about 37° C., saturated humidity, under 5% CO2 and 95% air. Before inoculation, cells in logarithmic growth phase were collected. After digested by 0.25% trypsin, the cells were washed with PBS once. The cells were resuspended with serum-free medium and counted. Serum-free medium were used for cell resuspension, until the cell concentration was adjusted to about 3×10^7 cell/mL.
4.2 Animal inoculation and grouping were performed.
The diameters (D) of the tumor nodules were measured three times a week with a circle sizer ruler. In addition, the following formula was applied to calculate the volume of the tumor nodules (V): V=[…](D/2)^3 generally for a spherical shape. Evaluation indexes of antitumor activity were tumor growth inhibition rate TGI (%) and relative tumor proliferation rate T/C (%).
The calculation formula of TGI was: TGI (%)=(Vcontrol−VTreatment)/Vcontrol)×100%. The relative tumor volume (RTV) was calculated by: RTV=Vt/V0, where V0 is the tumor volume at the time of group administration, and Vt is the tumor volume at the time of measurement.
The mice were weighed 3 times every week.
4.5 Data and statistical analysis were provided.

[2] = Body weight / toxicity of a single intraperitoneal injection in HCT-116 colon tumor-bearing nude mice; conditions: for Average rate of weight change of the animals / Average weight of the animals: single IP injection (QD×1), D1 and D2 400 mg/kg, D3 350 mg/kg, D4 300 mg/kg; for Average weight of the animals: Mean±SEM
[3] = D1 400 mg/kg Day 7, D2 400 mg/kg Day 9, D3 350 mg/kg Day 11, D4 300 mg/kg Day 11, single IP

With CCCCOC(=O)Nc1ccn(C2OC(COC(=O)CCCC(=O)OC[C@H]3O[C@@H](n4ccc(NC(=O)OCCCC)nc4=O)C(F)(F)[C@@H]3OC(=O)OCCCC)C(OC(=O)OCCCC)C2(F)F)c(=O)n1 (stereo in doubt) [Compound D1, 1,5-di-[4-N-(n-butyloxycarbonyl)-3′-O-(n-butoxycarbonyl)-2′-deoxy-2′,2′-difluoro-cytidine]glutarate] the “Relative tumor proliferation rate, minimum” value [1, 3] was 28.36%, the “Tumor inhibition rate, maximum” value [1, 3] was 91.49% and the “Relative tumor proliferation rate (T/C %)” value ([1]; Day 0) was 0.00%. The “Relative tumor volume (RTV)” value ([1]; Day 0) was 1.00, the “Tumor growth inhibition rate (TGI %)” value ([1]; Day 0) was 0.00% and the “Tumor volume of HCT-116 human colon cancer xenografts” value ([1]; Day 0) was 39.36 ± 6.16** mm^3. The “Relative tumor proliferation rate (T/C %)” value ([1]; Day 1) was 80.13%, the “Relative tumor volume (RTV)” value ([1]; Day 1) was 1.35 ± 0.24 and the “Tumor growth inhibition rate (TGI %)” value ([1]; Day 1) was 67.76%. The “Tumor volume of HCT-116 human colon cancer xenografts” value ([1]; Day 1) was 58.20 ± 17.45** mm^3, the “Relative tumor proliferation rate (T/C %)” value ([1]; Day 2) was 65.15% and the “Relative tumor volume (RTV)” value ([1]; Day 2) was 1.35 ± 0.24. The “Tumor growth inhibition rate (TGI %)” value ([1]; Day 2) was 73.77%, the “Tumor volume of HCT-116 human colon cancer xenografts” value ([1]; Day 2) was 58.20 ± 17.45** mm^3 and the “Relative tumor proliferation rate (T/C %)” value ([1]; Day 4) was 32.20%. The “Relative tumor volume (RTV)” value ([1]; Day 4) was 0.89 ± 0.12, the “Tumor growth inhibition rate (TGI %)” value ([1]; Day 4) was 87.46% and the “Tumor volume of HCT-116 human colon cancer xenografts” value ([1]; Day 4) was 37.24 ± 9.27** mm^3. For the same compound, the “Relative tumor proliferation rate (T/C %)” value ([1]; Day 7) was 28.36%, the “Relative tumor volume (RTV)” value ([1]; Day 7) was 1.16 ± 0.79 and the “Tumor growth inhibition rate (TGI %)” value ([1]; Day 7) was 91.49%. The “Tumor volume of HCT-116 human colon cancer xenografts” value ([1]; Day 7) was 36.82 ± 28.63** mm^3, the “Relative tumor proliferation rate (T/C %)” value ([1]; Day 9) was 28.77% and the “Relative tumor volume (RTV)” value ([1]; Day 9) was 1.61 ± 0.98. For the same compound, the “Tumor growth inhibition rate (TGI %)” value ([1]; Day 9) was 91.42%, the “Tumor volume of HCT-116 human colon cancer xenografts” value ([1]; Day 9) was 50.63 ± 36.49** mm^3 and the “Relative tumor proliferation rate (T/C %)” value ([1]; Day 11) was 34.47%. The “Relative tumor volume (RTV)” value ([1]; Day 11) was 3.18 ± 2.18, the “Tumor growth inhibition rate (TGI %)” value ([1]; Day 11) was 89.65% and the “Tumor volume of HCT-116 human colon cancer xenografts” value ([1]; Day 11) was 101.02 ± 78.57** mm^3. The “Relative tumor proliferation rate (T/C %)” value ([1]; Day 14) was 64.15%, the “Relative tumor volume (RTV)” value ([1]; Day 14) was 8.88 ± 6.75 and the “Tumor growth inhibition rate (TGI %)” value ([1]; Day 14) was 80.16%. The “Tumor volume of HCT-116 human colon cancer xenografts” value ([1]; Day 14) was 285.66 ± 237.94* mm^3, the “Relative tumor proliferation rate (T/C %)” value ([1]; Day 16) was 89.47% and the “Relative tumor volume (RTV)” value ([1]; Day 16) was 15.44 ± 11.56. For the same compound, the “Tumor growth inhibition rate (TGI %)” value ([1]; Day 16) was 72.62%, the “Tumor volume of HCT-116 human colon cancer xenografts” value ([1]; Day 16) was 495.95 ± 408.8** mm^3 and the “Relative tumor proliferation rate (T/C %)” value ([1]; Day 18) was 106.69%. The “Relative tumor volume (RTV)” value ([1]; Day 18) was 20.37 ± 13.96, the “Tumor growth inhibition rate (TGI %)” value ([1]; Day 18) was 67.62% and the “Tumor volume of HCT-116 human colon cancer xenografts” value ([1]; Day 18) was 647.07 ± 503.28** mm^3. For the same compound, the “Relative tumor proliferation rate (T/C %)” value ([1]; Day 21) was 138.14%, the “Relative tumor volume (RTV)” value ([1]; Day 21) was 32.34 ± 20.40 and the “Tumor growth inhibition rate (TGI %)” value ([1]; Day 21) was 58.38%. For the same compound, the “Tumor volume of HCT-116 human colon cancer xenografts” value ([1]; Day 21) was 1017.61 ± 749.53 mm^3, the “Relative tumor proliferation rate (T/C %)” value ([1]; Day 23) was 163.55% and the “Relative tumor volume (RTV)” value ([1]; Day 23) was 32.34 ± 20.40. For the same compound, the “Tumor growth inhibition rate (TGI %)” value ([1]; Day 23) was 56.91%, the “Tumor volume of HCT-116 human colon cancer xenografts” value ([1]; Day 23) was 1017.61 ± 749.53 mm^3 and the “Relative tumor proliferation rate (T/C %)” value ([1]; Day 25) was 155.09%. For the same compound, the “Relative tumor volume (RTV)” value ([1]; Day 25) was 33.53 ± 19.21, the “Tumor growth inhibition rate (TGI %)” value ([1]; Day 25) was 59.56% and the “Tumor volume of HCT-116 human colon cancer xenografts” value ([1]; Day 25) was 1044.35 ± 722.80 mm^3. The “Relative tumor proliferation rate (T/C %)” value ([1]; Day 28) was 198.76%, the “Relative tumor volume (RTV)” value ([1]; Day 28) was 42 ± 22 and the “Tumor growth inhibition rate (TGI %)” value ([1]; Day 28) was 51.78%. For the same compound, the “Tumor volume of HCT-116 human colon cancer xenografts” value ([1]; Day 28) was 1296.79 ± 847.87 mm^3, the “Relative tumor proliferation rate (T/C %)” value ([1]; Day 30) was 209.10% and the “Relative tumor volume (RTV)” value ([1]; Day 30) was 51.88 ± 24.88. For the same compound, the “Tumor growth inhibition rate (TGI %)” value ([1]; Day 30) was 43.36%, the “Tumor volume of HCT-116 human colon cancer xenografts” value ([1]; Day 30) was 1589.29 ± 983.15 mm^3 and the “Body weight after drug administration (in words)” value ([2]; D1 400 mg/kg, single IP, Day 4) was “significantly decreased”. The “Average rate of weight change of the animals” value ([2]; Day 0) was 0.00%, the “Average weight of the animals” value ([2]; Day 0) was 19.98 ± 0.49 g and the “Average rate of weight change of the animals” value ([2]; Day 1) was −2.55 ± 0.77%. For the same compound, the “Average weight of the animals” value ([2]; Day 1) was 19.48 ± 0.58 g, the “Average rate of weight change of the animals” value ([2]; Day 2) was −12.18 ± 2.63 % and the “Average weight of the animals” value ([2]; Day 2) was 17.45 ± 0.81 g. The “Average rate of weight change of the animals” value ([2]; Day 4) was −18.58 ± 4.66 %, the “Average weight of the animals” value ([2]; Day 4) was 16.15 ± 1.08 g and the “Average rate of weight change of the animals” value ([2]; Day 7) was −4.23 ± 3.77%. The “Average weight of the animals” value ([2]; Day 7) was 19.80 ± 1.40 g, the “Average rate of weight change of the animals” value ([2]; Day 9) was 0.42 ± 1.92% and the “Average weight of the animals” value ([2]; Day 9) was 20.75 ± 1.05 g. The “Average rate of weight change of the animals” value ([2]; Day 11) was 2.77 ± 4.27%, the “Average weight of the animals” value ([2]; Day 11) was 21.25 ± 1.55 g and the “Average rate of weight change of the animals” value ([2]; Day 14) was 3.29 ± 3.29%. For the same compound, the “Average weight of the animals” value ([2]; Day 14) was 21.35 ± 1.35 g, the “Average rate of weight change of the animals” value ([2]; Day 16) was 5.24 ± 2.74% and the “Average weight of the animals” value ([2]; Day 16) was 21.75 ± 1.25 g. The “Average rate of weight change of the animals” value ([2]; Day 18) was 12.70 ± 4.20 %, the “Average weight of the animals” value ([2]; Day 18) was 23.30 ± 1.60 g and the “Average rate of weight change of the animals” value ([2]; Day 21) was 7.90 ± 2.90 %. For the same compound, the “Average weight of the animals” value ([2]; Day 21) was 22.30 ± 1.30 g, the “Average rate of weight change of the animals” value ([2]; Day 23) was 9.32 ± 3.82 % and the “Average weight of the animals” value ([2]; Day 23) was 22.60 ± 1.50 g. The “Average rate of weight change of the animals” value ([2]; Day 25) was 12.20 ± 4.70%, the “Average weight of the animals” value ([2]; Day 25) was 23.20 ± 1.70 g and the “Average rate of weight change of the animals” value ([2]; Day 28) was 15.14 ± 3.64%. For the same compound, the “Average weight of the animals” value ([2]; Day 28) was 23.80 ± 1.50 g, the “Average rate of weight change of the animals” value ([2]; Day 30) was 14.22 ± 2.22% and the “Average weight of the animals” value ([2]; Day 30) was 23.60 ± 1.20 g.
